Literature values as cited in patent US20110257090A1, “SOLUTIONS FOR VOLUME THERAPY” (FRESENIUS KABI DEUTSCHLAND GMBH, priority 2008, published 2011).

System: cultured mammalian cells
Conditions: long-term studies

O=S(=O)(O)CCN(CCO)CCO [BES, N,N-bis(2-hydroxyethyl)-2-aminoethanesulfonic acid]
toxicity to cultured mammalian cells: non-toxic
